Results on 26 molecules are retold here after patent publication US9365506B2, “Compounds and compositions as TLR2 agonists” (NOVARTIS AG, priority 2010, dated 2016).

Bounds are passed on as bounds.

This experiment addresses human TLR2 (Homo sapiens, UniProt O60603). The experiment is described as follows: Reporter gene assay: HEK 293 cells stably transfected with human TLR2 and NF-kB-driven luciferase reporter. The settings on record: for Emax: HEK293, 7 h, read-out: Hek-TLR2 (% Eff); for EC50: Hek-TLR2 μM (EC50), HEK 293 stably transfected with human TLR2 and pNifty-Luciferase, 7 hours incubation, concentration giving 50% of maximal signal.

Sequence of human TLR2 (O60603 21-784): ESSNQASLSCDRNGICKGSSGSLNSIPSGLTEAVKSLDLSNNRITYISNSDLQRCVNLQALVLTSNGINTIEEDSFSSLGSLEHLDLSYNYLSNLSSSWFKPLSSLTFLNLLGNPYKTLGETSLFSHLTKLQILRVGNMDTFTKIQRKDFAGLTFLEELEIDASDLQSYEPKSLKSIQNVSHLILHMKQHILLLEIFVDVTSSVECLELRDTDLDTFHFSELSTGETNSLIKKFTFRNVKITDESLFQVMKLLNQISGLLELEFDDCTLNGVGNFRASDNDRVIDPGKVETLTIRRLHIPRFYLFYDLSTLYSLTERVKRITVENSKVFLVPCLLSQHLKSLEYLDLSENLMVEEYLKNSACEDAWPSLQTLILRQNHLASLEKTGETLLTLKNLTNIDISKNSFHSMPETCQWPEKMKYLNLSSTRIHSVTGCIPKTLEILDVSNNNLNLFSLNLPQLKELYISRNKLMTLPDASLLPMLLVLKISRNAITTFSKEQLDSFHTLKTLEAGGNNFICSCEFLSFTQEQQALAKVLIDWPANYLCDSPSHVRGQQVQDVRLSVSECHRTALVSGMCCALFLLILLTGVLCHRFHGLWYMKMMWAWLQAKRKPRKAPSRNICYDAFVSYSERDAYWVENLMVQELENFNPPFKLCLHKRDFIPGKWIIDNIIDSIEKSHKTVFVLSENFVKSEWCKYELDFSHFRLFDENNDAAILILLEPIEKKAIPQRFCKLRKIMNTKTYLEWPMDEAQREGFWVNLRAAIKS
Experimental: As a control assay, normal Hek293 transfected with pNifty-Luc were used. […] Bright-Glo™ Luciferase assay buffer and substrate were supplied by Promega #E263B and #E264B (assay substrate and buffer respectively). 384 well clear-bottom plates were supplied by Greiner bio-one (#789163-G) and were custom bar-coded plates.
Cells were plated at 25,000 cells/well in 384-well plates in a final volume of 50 μl of media. Cells were allowed to adhere to the plates after overnight (18 hours) culture at 37° C. and 5% CO2. Serially diluted experimental and positive control compounds were then dispensed to each well and incubated for 7 hours at 37° C. and 5% CO2. Cells stimulated with DMSO alone also serve as negative controls. After the incubation, 30 μl of the pre-mix assay buffer and substrate buffer were added to each well according to manufacturer's instructions. The luminescence signal was read on a CLIPR machine with an integration time of 20 seconds per plate.

Consider `CCCCCCCCCCCC(=O)OC[C@H](CSC[C@H](N)C(=O)NCCOCCOCCC(F)(F)P(=O)(O)O)OC(=O)CCCCCCCCCCC` [Example 4, (12R,16R)-12-amino-16-(dodecanoyloxy)-1,1-difluoro-11,19-dioxo-4,7,18-trioxa-14-thia-10-azatriacontylphosphonic acid], for which the Emax amounted to 101% and the response was half-maximal at 31 nM (EC50).
`CCCCCCCCCCCC(=O)OC[C@H](CSC[C@H](N)C(=O)NCCCCCN)OC(=O)CCCCCCCCCCC` [Example 7, (R)-3-((R)-2-amino-3-(5-aminopentylamino)-3-oxopropylthio)propane-1,2-diyl didodecanoate]: the Emax worked out at 113% and the concentration giving a half-maximal response (EC50) (as a rule, the concentration that produces a half-maximal response) stood at 1220 nM.
Regarding `CCCCCCCCCCCC(=O)OC[C@H](CSC[C@H](N)C(=O)NCCCOCCCCOCCCN)OC(=O)CCCCCCCCCCC` [Example 8, (2R,6R)-6,20-diamino-7-oxo-12,17-dioxa-4-thia-8-azaicosane-1,2-diyl didodecanoate], the Emax was 98% and the concentration giving a half-maximal response (EC50) stood at 810 nM.
On the same counts, the results for `CCCCCCCCCCCC(=O)OC[C@H](CSC[C@H](N)C(=O)NCCCOCCOCCOCCCNC(=O)C(N)CS)OC(=O)CCCCCCCCCCC` (stereo partly drawn) [Example 9, (20R,24R)-2,20-diamino-1-mercapto-3,19-dioxo-8,11,14-trioxa-22-thia-4,18-diazapentacosane-24,25-diyl didodecanoate] are 73% and 247 nM.
`CCCCCCCCCCCCCCCCOC[C@H](CSC[C@H](N)C(=O)N[C@@H](CC)C(=O)N[C@H](CCC(=O)O)C(N)=O)OCCCCCCCCCCCCCCCC` [Example 10, (4R,7S,10R,14R)-10-amino-4-carbamoyl-7-ethyl-14-(hexadecyloxy)-6,9-dioxo-16-oxa-12-thia-5,8-diazadotriacontan-1-oic acid]: the Emax came to 72% and the midpoint of the response, the EC50, lay at 14100 nM.
On the same counts, the results for `CCCCCCCCCCCCCCCCOC[C@H](CSC[C@H](N)C(=O)NC1(CO)CC1)NC(=O)CCCCCCCCCCC` [Example 11, N—((R)-1-((R)-2-amino-3-(1-(hydroxymethyl)cyclopropylamino)-3-oxopropylthio)-3-(hexadecyloxy)propan-2-yl)dodecanamide] are 3.6% and above 100000 nM.
Regarding `CCCCCCCCCCCC(=O)NC[C@H](CSC[C@H](N)C(=O)NC1(CO)CC1)NC(=O)CCCCCCCCCCC` [Example 12, N,N′—((R)-3-((R)-2-amino-3-(1-(hydroxymethyl)cyclopropylamino)-3-oxopropylthio)propane-1,2-diyl)didodecanamide], the Emax came out at 3.5% and the concentration for a half-maximal effect (EC50) is above 100000 nM.
As to `CCCCCCCCCCCC(=O)OC[C@H](CSC[C@H](N)C(=O)N[C@@H](CC)COCC(=O)O)OC(=O)CCCCCCCCCCC` [Example 13, (5S,8R,12R)-8-amino-12-(dodecanoyloxy)-5-ethyl-7,15-dioxo-3,14-dioxa-10-thia-6-azahexacosan-1-oic acid], the Emax stood at 118% and a half-maximal effect (EC50) was put at 6500 nM.
`CCCCCCCCCCCC(=O)OC[C@H](CSC[C@H](N)C(=O)N[C@@H](C)COCCCP(=O)(O)O)OC(=O)CCCCCCCCCCC` [Example 14, (6S,9R,13R)-9-amino-13-(dodecanoyloxy)-6-methyl-8,16-dioxo-4,15-dioxa-11-thia-7-azaheptacosylphosphonic acid]: the Emax came out at 153% and the EC50 stood at 19.2 nM.
Consider `CCCCCCCCCCCC(=O)OC[C@H](CSC[C@H](N)C(=O)NCCc1ccc(OCCCP(=O)(O)O)cc1)OC(=O)CCCCCCCCCCC` [Example 16, 3-(4-(2-((R)-2-amino-3-((R)-2,3-bis(dodecanoyloxy)propylthio)propanamido)ethyl)phenoxy)propylphosphonic acid], for which the Emax was 107% and the midpoint of the response, the EC50, lay at 410 nM.
On the same counts, the results for `CCCCCCCCCCCC(=O)OC[C@H](CSC[C@H](N)C(=O)NCCOCCC(F)(F)P(=O)(O)O)OC(=O)CCCCCCCCCCC` [Example 21, (9R,13R)-9-amino-13-(dodecanoyloxy)-1,1-difluoro-8,16-dioxo-4,15-dioxa-11-thia-7-azaheptacosylphosphonic acid] are 122% and 14 nM.
On to `CCCCCCCCCCCCOC[C@H](CSC[C@H](N)C(=O)NCCOCCOCCC(F)(F)P(=O)(O)O)OCCCCCCCCCCCC` [Example 22, (12R,16R)-12-amino-16-(dodecyloxy)-1,1-difluoro-11-oxo-4,7,18-trioxa-14-thia-10-azatriacontylphosphonic acid], for which the Emax turned out to be 60% and it took 2450 nM to reach a half-maximal effect (EC50).
Turning to `CCCCCCCC(=O)OC[C@H](CSC[C@H](N)C(=O)NCCOCCOCCOCCP(=O)(O)O)OC(=O)CCCCCCC` [Example 23, (14R,18R)-14-amino-18-(octanoyloxy)-13,21-dioxo-3,6,9,20-tetraoxa-16-thia-12-azaoctacosylphosphonic acid], the Emax worked out at 73% and the half-maximal effective concentration (EC50) was 3040 nM.
As to `CCCCCCCCCCCCCC(=O)OC[C@H](CSC[C@H](N)C(=O)NCCOCCOCCOCCP(=O)(O)O)OC(=O)CCCCCCCCCCCCC` [Example 25, (14R,18R)-14-amino-13,21-dioxo-18-(tetradecanoyloxy)-3,6,9,20-tetraoxa-16-thia-12-azatetratriacontylphosphonic acid], the Emax amounted to 99% and the EC50 was found to be 6.3 nM.
For `CCCCCCCCCCCCOC[C@H](CSC[C@H](N)C(=O)NCCOCCOCCOCCP(=O)(O)O)OC(=O)CCCCCCCCCCC` [Example 27, ((14R,18R)-14-amino-18-(dodecanoyloxy)-13-oxo-3,6,9,20-tetraoxa-16-thia-12-azadotriacontyl)phosphonic acid], in that order: 77% and 610 nM.
Regarding `CCCCCCCCCCCCOC[C@H](CSC[C@H](N)C(=O)N[C@@H](C)COCCOCCOCCP(=O)(O)O)NC(=O)CCCCCCCCCCC` [Example 28, ((11S,14R,18R)-14-amino-18-dodecanamido-11-methyl-13-oxo-3,6,9,20-tetraoxa-16-thia-12-azadotriacontyl)phosphonic acid], the Emax was determined as 37% and a half-maximal response (EC50) required 990 nM.
For the molecule `CCCCCCCCCCCCOC[C@H](CSC[C@H](N)C(=O)N[C@@H](C)COCCOCCOCCP(=O)(O)O)OCCCCCCCCCCCC` [Example 29, ((11S,14R,18R)-14-amino-18-(dodecyloxy)-11-methyl-13-oxo-3,6,9,20-tetraoxa-16-thia-12-azadotriacontyl)phosphonic acid], the Emax turned out to be 74% and the EC50 was 1850 nM.
For `CCCCCCCCCCCCOC[C@H](CSC[C@H](N)C(=O)N[C@@H](C)C(=O)NCCOCCOCCP(=O)(O)O)OCCCCCCCCCCCC` [Example 30, ((11S,14R,18R)-14-amino-18-(dodecyloxy)-11-methyl-10,13-dioxo-3,6,20-trioxa-16-thia-9,12-diazadotriacontyl)phosphonic acid], the Emax turned out to be 59% and it took 920 nM to reach a half-maximal effect (EC50).
On the same counts, the results for `CCCCCCCCCCCCOC[C@H](CSC[C@H](N)C(=O)N[C@@H](C)C(=O)NCCOCCOCCP(=O)(O)O)NC(=O)CCCCCCCCCCC` [Example 31, ((11S,14R,18R)-14-amino-18-dodecanamido-11-methyl-10,13-dioxo-3,6,20-trioxa-16-thia-9,12-diazadotriacontyl)phosphonic acid] are 35% and 2910 nM.
For `CCCCCCCCCCCCOC[C@H](CSC[C@H](N)C(=O)NCCOCCOCCOCCC(=O)O)OCCCCCCCCCCCC` [Example 32, (15R,19R)-15-amino-19-(dodecyloxy)-14-oxo-4,7,10,21-tetraoxa-17-thia-13-azatritriacontan-1-oic acid], the Emax was 78% and the midpoint of the response, the EC50, lay at 9130 nM.
For the molecule `CCCCCCCCCCCCOC[C@H](CSC[C@H](N)C(=O)NCCOCCOCCOCCC(=O)O)NC(=O)CCCCCCCCCCC` [Example 33, (15R,19R)-15-amino-19-dodecanamido-14-oxo-4,7,10,21-tetraoxa-17-thia-13-azatritriacontan-1-oic acid], the Emax was found to be 48% and the response was half-maximal at 3850 nM (EC50).
For `CCCCCCCCCCCCCCCC(=O)N[C@@H](CSC[C@@H](COC(=O)CCCCCCCCCCC)OC(=O)CCCCCCCCCCC)C(=O)NCCOCCOCCOCCP(=O)(O)O` [Example 34, ((14R,18R)-18-(dodecanoyloxy)-13,21-dioxo-14-palmitamido-3,6,9,20-tetraoxa-16-thia-12-azadotriacontyl)phosphonic acid], in that order: 47% and above 100000 nM.
Consider `CCCCCCCCCCCCOC[C@H](CSC[C@H](N)C(=O)NCCOCCOCCC(F)(F)P(=O)(O)O)NC(=O)CCCCCCCCCCC` [Example 35, (12R,16R)-12-amino-16-dodecanamido-1,1-difluoro-11-oxo-4,7,18-trioxa-14-thia-10-azatriacontylphosphonic acid], for which the Emax turned out to be 15% and the EC50 is 770 nM.
In turn, `CCCCCCCCCCNC(=O)OC[C@H](CSC[C@H](N)C(=O)NCCOCCOCCOCCP(=O)(O)O)OC(=O)NCCCCCCCCCC` [Example 36, (14R,18R)-14-amino-18-(decylcarbamoyloxy)-13,21-dioxo-3,6,9,20-tetraoxa-16-thia-12,22-diazadotriacontylphosphonic acid] came in with an EC50 of 822 nM. Moreover, the “Hek-TLR2 (% Eff)” value (% Eff relative to Pam3CSK4, HEK 293 human TLR2 NF-kB luciferase) is “(76%)”.
With `CCCCCCCCCCNC(=O)OC[C@H](CSC[C@H](N)C(=O)NCCOCCOCCOCCC(=O)O)OC(=O)NCCCCCCCCCC` [Example 37, (15R,19R)-15-amino-19-(decylcarbamoyloxy)-14,22-dioxo-4,7,10,21-tetraoxa-17-thia-13,23-diazatritriacontan-1-oic acid], the Emax was 7% and the response was half-maximal at 6210 nM (EC50).
Turning to `CCCCCCCCNC(=O)OC[C@H](CSC[C@H](N)C(=O)NCCOCCOCCOCCP(=O)(O)O)OC(=O)NCCCCCCCC` [Example 38, (14R,18R)-14-amino-18-(octylcarbamoyloxy)-13,21-dioxo-3,6,9,20-tetraoxa-16-thia-12,22-diazatriacontylphosphonic acid], the Emax is 107% and the midpoint of the response, the EC50, lay at 7030 nM.
